What all share (assay type): in vivo, mouse
For test [1], the system named is Dmp1-null mice. In words: Serum calcium and phosphate after single oral dose in Dmp1-null mice. The conditions noted are these: single oral dose 50 mg/kg, 24 h post-administration. From the text:
FGFR inhibitor treatment induces 1,25(OH)2D3 biosynthesis and alleviates hypocalcemia and hypophosphatemia in Hyp mice. Wild-type C57BL/6 and Hyp (B6.Cg-PhexHyp/J) mice were obtained from The Jackson Laboratory. Dmp1-null mice were generated by Feng et al. (J. Dent. Res. 2003; 82:776-780.). All mice were kept in cages under standard laboratory conditions. Mice were fed on a standard rodent diet with water ad libitum.
For analysis of calcium and phosphate levels mice received a single oral dose of the FGFR inhibitor BGJ398 (50 mg/kg) or vehicle and were studied 24 h post-administration. Phosphate and calcium levels were determined from serum. As for Hyp mice, pharmacological FGFR inhibition led to increased serum calcium and phosphate levels in Dmp1-null mice (FIGS. 2C and D, respectively). Data in FIG. 2 are shown as average with SEM (n≥6). Data were compared by unpaired Student's t test; * p<0.05; ** p<0.01; *** p<0.001; n. s.: not significant.

Test [2] relates to Hyp mice. Put plainly: Long-term (8 weeks, 3 qw) treatment of Hyp mice: body weight, tail length, serum parameters. The conditions noted are these: 50 mg/kg 3 qw for 56 days. The protocol: (§1) Serum was separated from whole blood using clot activator centrifugation tubes. 100 μl of serum were used for determination of phosphate and calcium levels using the VetScan diagnostic profiling system. Serum concentrations of 1,25(OH)2D3 were determined using a radio receptor assay kit. FGF23 serum levels were analyzed by an ELISA detecting intact FGF23 (Kainos).
Long-term FGFR inhibition enhances body weight and tail length development and restores mineral ion homeostasis in Hyp mice. A long-term treatment studies was performed to monitor a potential amelioration of the rickets-like bone phenotypes of the Hyp mouse model. Treatments were performed over a course of 8 weeks. Owing to the persistence of elevated calcium and phosphate levels—extending beyond the clearance of BGJ398 from the kidney (FIG. 4)—mice were treated three times weekly (3 qw) with BGJ398 (50 mg/kg body weight) or vehicle for 56 days and analyzed similarly as explained above. […] Total body weight (FIG. 5B) and tail length gain (FIG. 5D) over the course of the treatment are depicted in FIG. 5 as well. Calcium (FIG. 5E) and phosphate (FIG. 5F) levels at the end of the 8 week treatment were determined from serum 24 h after the last administration and are shown in FIG. 5. Data are shown as average with SEM (n≥6). Data were compared by unpaired Student's t test; * p<0.05; ** p<0.01; *** p<0.001; n. s.: not significant.
Wild-type or Hyp mice were treated again with the FGFR inhibitor BGJ398 (50 mg/kg) or vehicle 3 qw for 56 days and FGF23 (FIG. 6A), parathyroid hormone (PTH) (FIG. 6B) and 1,25(OH)2D3 (FIG. 6C) levels were determined from serum at 24 h after the last dosing. PTH values were determined by separating the serum from whole blood using clot activator centrifugation tubes (Sarstedt). 20 μl of serum were used for determination PTH levels using a mouse PTH ELISA (Immutopics). Data were compared by unpaired Student's t test; * p<0.05; ** p<0.01; *** p<0.001; n. s.: not significant.

Test [3] deals with FGF23. Put plainly: FGF23 bone mRNA and serum levels after single oral dose in wild-type and Hyp mice. The conditions noted are these: single oral dose 50 mg/kg, 7 h post-dosing. The protocol: Kidneys were sampled, total RNA was isolated. For RNA isolation from mouse tibial and femoral bones, epiphyses were cut off and bone marrow was removed by centrifugation at 4° C. Tissue was homogenized using a Precellyis 24 bead homogenizer and RNA was extracted with TRIzol reagent. RNA was purified subsequently by chloroform extraction, isopropanol precipitation and RNeasy Mini kit. For kidney RNA, approximately 60 mg of tissue was homogenized in 1.5 ml RTL buffer (Qiagen) with a rotor-stator homogenizer and RNA was purified with the RNeasy Mini kit. Random hexamer primed cDNA was synthesized with 0.5-2 μg RNA and MultiScribe MuLV reverse transcriptase.
Gene expression was analyzed by quantitative real-time PCR (qPCR). TaqMan Probe-Based Gene Expression assays were used for expression analysis of mouse Cyp27b1 (Mm01165919), Cyp24a1 (Mm00487244) and Gapdh (4352339E). Sequences of primers and FAM/TAMRA-labeled probes (Microsynth) for the detection of mouse Fgf23 were 5′-[…] (forward), 5′-[…] (reverse) and 5′-[…] (probe). Quantitative real-time PCR was performed in an iQ5 Real-Time PCR Detection System using a qPCR core kit for probe assay and an equivalent of 40 or 80 ng RNA of each sample. The data were normalized to Gapdh expression.
as §1
Besides the alleviation of the mineral ion deficiency in the two mouse models for FGF23-related hypophosphatemic rickets, we also noticed a repressive effect of FGFR inhibitor treatment on FGF23 levels in BGJ398-treated Hyp mice. Mice received a single oral dose of the FGFR inhibitor BGJ398 (50 mg/kg) or vehicle and were studied 7 h post-administration. FGF23 bone mRNA (FIG. 3A) and serum (FIG. 3B) levels in wild-type and Hyp mice treated with BGJ398 were determined. […]

Where [4] appears, read: Hyp mice, 24 h after last administration.
[5] abbreviates: Hyp mice, 24 h after last dosing.

As for `CCN1CCN(c2ccc(Nc3cc(N(C)C(=O)Nc4c(Cl)c(OC)cc(OC)c4Cl)ncn3)cc2)CC1` [BGJ398, 3-(2,6-Dichloro-3,5-dimethoxy-phenyl)-1-{6-[4-(4-ethyl-piperazin-1-yl)-phenylamino]-pyrimid-4-yl}-1-methyl-urea], in test [1], the serum calcium levels result was “increased” and the serum phosphate levels entry is reported as “increased”. Besides, in test [2] (setting [4]), the serum calcium levels entry is “complete normalization” and the serum phosphate levels result was “complete normalization”. Besides, in test [2] (setting [5]), the FGF23 serum concentrations entry was “further increase” and the “PTH levels (serum)” value was “normalization”. The tail length development entry in test [2] (Hyp mice, vs control Hyp) is recorded as “much stronger increase in tail length compared to control Hyp mice”. The body weight development result in test [2] (Hyp mice, vs vehicle Hyp) is reported as “stronger increase in body weight compared to the vehicle control group”. In addition, the tail length gain result in test [2] (Hyp mice, vs vehicle wild-type) was “significantly higher compared to vehicle-treated wild-type littermates”. Further, in test [2] (wild-type or Hyp mice, 24 h after last dosing), the “1,25(OH)2D3 serum levels” value was “not significantly different among the treatment groups”. In addition, the “reduction of serum FGF23 levels” value in test [3] (Hyp mice) is reported as “approximately 50%”. Also, the “FGF23 expression in bone (mRNA)” value in test [3] (both Hyp and wild-type mice) is “almost abolished”. In test [3] (wild-type mice), the “serum FGF23 levels” value was “undetectable”.

Values taken from patent US10028955B2, “FGFR inhibitor for use in the treatment of hypophosphatemic disorders” (Novartis AG, priority 2012, dated 2018).
